Experimental data taken from ChEMBL document CHEMBL1144891, “Design, synthesis, and pharmacology of a highly subtype-selective GluR1/2 agonist, (RS)-2-amino-3-(4-chloro-3-hydroxy-5-isoxazolyl)propionic acid (Cl-HIBO)” (J Med Chem, 2003).

Legend:
[1] = biological target: Glutamate receptor 4 (Rattus norvegicus, UniProt P19493); assay: Effective concentration of compound was determined for electrophysiological properties on Ionotropic glutamate receptor AMPA 4 (GluR4) using […] Xenopus laevis oocytes; format: functional, cell-based, Oocyte
[2] = biological target: Glutamate receptor 4 (Homo sapiens, UniProt P48058); assay: Binding affinity of compound was determined towards cloned Ionotropic glutamate receptor AMPA 4 (GluR4) expressed in Sf 9 insect cells
[3] = biological target: Glutamate receptor 2 (Rattus norvegicus, UniProt P19491); assay: Effective concentration of compound was determined for electrophysiological properties on Ionotropic glutamate receptor AMPA 2 (GluR2) using […] Xenopus laevis oocytes; format: functional, cell-based, Oocyte
[4] = biological target: Glutamate receptor ionotropic, kainate 1 (Homo sapiens, UniProt P39086); assay: Binding affinity of compound was determined towards cloned Ionotropic glutamate receptor ionotropic kainate 1 (GluR5) expressed in Sf 9 insect cells
[5] = biological target: Glutamate receptor 3 (Rattus norvegicus, UniProt P19492); assay: Effective concentration of compound was determined for electrophysiological properties on Ionotropic glutamate receptor AMPA 3 (GluR3) using […] Xenopus laevis oocytes; format: functional, cell-based, Oocyte
[6] = biological target: Glutamate receptor 3 (Homo sapiens, UniProt P42263); assay: Binding affinity of compound was determined towards cloned Ionotropic glutamate receptor AMPA 3 (GluR3) expressed in Sf 9 insect cells
[7] = biological target: Glutamate receptor 1 (Rattus norvegicus, UniProt P19490); assay: Binding affinity of compound was determined against Ionotropic glutamate receptor AMPA receptor, using radioligand [3H]- AMPA
[8] = biological target: Glutamate receptor 1 (Homo sapiens, UniProt P42261); assay: Binding affinity of compound was determined towards cloned Ionotropic glutamate receptor AMPA 1 (GluR1) expressed in Sf 9 insect cells
[9] = biological target: T1, Glutamate receptor ionotropic, kainate 3 (Rattus norvegicus, UniProt P42264); assay: Binding affinity of compound was determined against KA receptor, using radioligand [3H]- KA
[10] = biological target: T2, Metabotropic glutamate receptor 1 (Homo sapiens, UniProt Q13255); assay: Antagonist activity of compound at Metabotropic glutamate receptor 1 alpha was determined; format: functional
[11] = Neurotoxicity was determined in cultured mouse cortical neurons; format: toxicity
[12] = biological target: Glutamate receptor ionotropic, NMDA 2C (Rattus norvegicus, UniProt Q00961); assay: Binding affinity of compound was determined against N-methyl-D-aspartate glutamate receptor, using radioligand [3H]- CGP-39653
[13] = species on record: Rattus norvegicus; assay: Effective concentration of compound was determined for electrophysiological properties on iGluRs using rat cortical slice model in Xenopus laevis oocytes
[14] = biological target: Glutamate receptor ionotropic, kainate 2 (Homo sapiens, UniProt Q13002); assay: Binding affinity of compound was determined towards cloned Ionotropic glutamate receptor ionotropic kainate 6 (GluR6) expressed in Sf 9 insect cells
[15] = biological target: Glutamate receptor 2 (Homo sapiens, UniProt P42262); assay: biochemical
[16] = biological target: T1, Glutamate receptor ionotropic, kainate 3; assay: Binding affinity of compound was determined against Ionotropic glutamate receptor ionotropic kainate, using radioligand [3H]- KA
[17] = biological target: Glutamate receptor 1 (Mus musculus, UniProt P23818); assay: Effective concentration of compound was determined for electrophysiological properties on […] glutamate receptor 1 using […] Xenopus laevis oocytes; format: functional, cell-based, Oocyte
[18] = biological target: T2, Metabotropic glutamate receptor 1; assay: Antagonist activity of compound at Metabotropic glutamate receptor 1 was determined; format: functional

Sequence of Glutamate receptor ionotropic, kainate 2 (Q13002 whole entry): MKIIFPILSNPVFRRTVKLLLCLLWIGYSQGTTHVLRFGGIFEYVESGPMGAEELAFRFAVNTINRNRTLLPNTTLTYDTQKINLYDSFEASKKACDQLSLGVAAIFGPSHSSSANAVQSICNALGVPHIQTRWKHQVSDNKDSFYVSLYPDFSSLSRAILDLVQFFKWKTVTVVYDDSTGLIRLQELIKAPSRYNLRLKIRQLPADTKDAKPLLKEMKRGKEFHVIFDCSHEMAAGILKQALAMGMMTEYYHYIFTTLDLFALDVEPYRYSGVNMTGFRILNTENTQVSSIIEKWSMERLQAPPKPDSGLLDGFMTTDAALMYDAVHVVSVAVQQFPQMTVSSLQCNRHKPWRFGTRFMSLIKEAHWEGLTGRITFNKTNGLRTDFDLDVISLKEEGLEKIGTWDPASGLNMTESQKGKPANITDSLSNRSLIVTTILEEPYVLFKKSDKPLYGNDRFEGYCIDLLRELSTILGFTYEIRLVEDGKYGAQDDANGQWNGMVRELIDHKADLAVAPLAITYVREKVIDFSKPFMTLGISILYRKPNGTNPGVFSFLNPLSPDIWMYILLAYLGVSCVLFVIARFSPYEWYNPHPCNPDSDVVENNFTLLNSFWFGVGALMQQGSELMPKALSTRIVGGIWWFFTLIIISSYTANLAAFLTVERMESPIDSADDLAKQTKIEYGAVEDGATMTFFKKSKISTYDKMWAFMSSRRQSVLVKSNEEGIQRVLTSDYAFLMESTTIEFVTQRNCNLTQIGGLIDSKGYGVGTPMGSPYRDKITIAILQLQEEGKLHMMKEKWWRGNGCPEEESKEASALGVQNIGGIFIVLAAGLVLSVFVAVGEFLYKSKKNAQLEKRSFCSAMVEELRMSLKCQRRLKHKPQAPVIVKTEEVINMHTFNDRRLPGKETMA
Sequence of Glutamate receptor 3 (Homo sapiens, UniProt P42263) (P42263 whole entry): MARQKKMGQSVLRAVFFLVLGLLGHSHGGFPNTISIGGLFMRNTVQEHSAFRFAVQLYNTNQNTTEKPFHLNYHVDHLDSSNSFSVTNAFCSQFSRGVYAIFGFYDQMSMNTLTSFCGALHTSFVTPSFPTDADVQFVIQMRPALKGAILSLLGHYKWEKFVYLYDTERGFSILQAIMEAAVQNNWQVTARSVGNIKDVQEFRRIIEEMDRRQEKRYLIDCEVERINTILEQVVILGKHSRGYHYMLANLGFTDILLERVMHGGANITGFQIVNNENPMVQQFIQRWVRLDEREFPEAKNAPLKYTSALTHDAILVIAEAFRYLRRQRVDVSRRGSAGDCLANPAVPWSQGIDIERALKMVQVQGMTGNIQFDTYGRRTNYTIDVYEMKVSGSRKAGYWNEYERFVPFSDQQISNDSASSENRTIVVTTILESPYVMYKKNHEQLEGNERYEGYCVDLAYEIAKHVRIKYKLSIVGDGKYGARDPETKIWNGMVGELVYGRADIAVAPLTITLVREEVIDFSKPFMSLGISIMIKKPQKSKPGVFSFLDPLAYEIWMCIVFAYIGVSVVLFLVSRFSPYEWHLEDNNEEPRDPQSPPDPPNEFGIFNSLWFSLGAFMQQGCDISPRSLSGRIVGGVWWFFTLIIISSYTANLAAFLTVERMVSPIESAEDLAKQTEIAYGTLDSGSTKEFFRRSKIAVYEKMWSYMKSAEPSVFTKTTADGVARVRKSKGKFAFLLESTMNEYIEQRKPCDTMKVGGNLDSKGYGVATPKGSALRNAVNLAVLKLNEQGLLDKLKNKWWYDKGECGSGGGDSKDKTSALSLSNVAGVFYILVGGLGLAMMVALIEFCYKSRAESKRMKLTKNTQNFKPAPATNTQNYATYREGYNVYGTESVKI
Sequence of Glutamate receptor ionotropic, kainate 1 (P39086 whole entry): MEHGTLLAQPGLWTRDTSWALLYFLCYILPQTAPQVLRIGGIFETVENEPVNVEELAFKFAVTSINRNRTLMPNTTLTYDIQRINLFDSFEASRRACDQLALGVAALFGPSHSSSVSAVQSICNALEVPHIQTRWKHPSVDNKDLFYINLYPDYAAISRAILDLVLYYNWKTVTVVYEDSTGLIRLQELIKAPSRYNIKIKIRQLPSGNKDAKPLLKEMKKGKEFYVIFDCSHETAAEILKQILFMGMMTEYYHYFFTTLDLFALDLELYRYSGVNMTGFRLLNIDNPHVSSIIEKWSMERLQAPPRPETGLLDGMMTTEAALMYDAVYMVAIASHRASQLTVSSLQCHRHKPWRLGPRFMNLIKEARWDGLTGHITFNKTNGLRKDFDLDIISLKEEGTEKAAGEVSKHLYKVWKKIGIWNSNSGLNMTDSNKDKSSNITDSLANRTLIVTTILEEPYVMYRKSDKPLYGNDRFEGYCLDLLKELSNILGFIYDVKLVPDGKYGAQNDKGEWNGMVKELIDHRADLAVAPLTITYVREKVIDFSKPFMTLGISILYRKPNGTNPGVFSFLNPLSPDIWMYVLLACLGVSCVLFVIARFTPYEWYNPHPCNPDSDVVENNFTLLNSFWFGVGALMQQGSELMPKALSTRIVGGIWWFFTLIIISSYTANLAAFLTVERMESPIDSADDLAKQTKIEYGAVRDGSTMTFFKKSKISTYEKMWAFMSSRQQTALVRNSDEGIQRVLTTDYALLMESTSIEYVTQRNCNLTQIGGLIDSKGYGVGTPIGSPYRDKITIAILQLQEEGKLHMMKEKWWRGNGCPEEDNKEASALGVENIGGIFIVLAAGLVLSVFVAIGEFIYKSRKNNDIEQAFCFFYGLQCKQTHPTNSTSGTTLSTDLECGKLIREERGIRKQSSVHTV
Sequence of Glutamate receptor 2 (Homo sapiens, UniProt P42262) (P42262 whole entry): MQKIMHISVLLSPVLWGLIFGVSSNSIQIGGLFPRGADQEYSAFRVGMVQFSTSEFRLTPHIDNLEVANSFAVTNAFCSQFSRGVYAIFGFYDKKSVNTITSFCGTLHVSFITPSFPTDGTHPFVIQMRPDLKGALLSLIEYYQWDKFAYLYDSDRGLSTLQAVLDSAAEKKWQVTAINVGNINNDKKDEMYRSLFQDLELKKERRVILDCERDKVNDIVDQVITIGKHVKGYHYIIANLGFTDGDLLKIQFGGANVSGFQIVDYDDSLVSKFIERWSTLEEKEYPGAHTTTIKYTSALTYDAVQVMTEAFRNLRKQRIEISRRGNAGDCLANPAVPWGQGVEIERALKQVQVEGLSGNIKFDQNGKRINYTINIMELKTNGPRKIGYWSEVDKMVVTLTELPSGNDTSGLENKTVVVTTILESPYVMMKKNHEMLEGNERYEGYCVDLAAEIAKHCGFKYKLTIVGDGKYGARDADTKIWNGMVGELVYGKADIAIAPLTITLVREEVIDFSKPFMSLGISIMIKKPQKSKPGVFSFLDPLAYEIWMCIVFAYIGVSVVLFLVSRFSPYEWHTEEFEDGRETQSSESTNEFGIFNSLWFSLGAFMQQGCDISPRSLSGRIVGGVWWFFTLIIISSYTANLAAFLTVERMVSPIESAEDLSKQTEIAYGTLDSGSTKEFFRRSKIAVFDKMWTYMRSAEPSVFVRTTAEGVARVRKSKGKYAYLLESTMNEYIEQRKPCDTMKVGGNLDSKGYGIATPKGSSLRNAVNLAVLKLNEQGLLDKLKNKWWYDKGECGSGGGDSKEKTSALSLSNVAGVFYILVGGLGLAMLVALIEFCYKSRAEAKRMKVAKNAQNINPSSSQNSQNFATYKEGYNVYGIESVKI
Sequence of Glutamate receptor 4 (Homo sapiens, UniProt P48058) (P48058 whole entry): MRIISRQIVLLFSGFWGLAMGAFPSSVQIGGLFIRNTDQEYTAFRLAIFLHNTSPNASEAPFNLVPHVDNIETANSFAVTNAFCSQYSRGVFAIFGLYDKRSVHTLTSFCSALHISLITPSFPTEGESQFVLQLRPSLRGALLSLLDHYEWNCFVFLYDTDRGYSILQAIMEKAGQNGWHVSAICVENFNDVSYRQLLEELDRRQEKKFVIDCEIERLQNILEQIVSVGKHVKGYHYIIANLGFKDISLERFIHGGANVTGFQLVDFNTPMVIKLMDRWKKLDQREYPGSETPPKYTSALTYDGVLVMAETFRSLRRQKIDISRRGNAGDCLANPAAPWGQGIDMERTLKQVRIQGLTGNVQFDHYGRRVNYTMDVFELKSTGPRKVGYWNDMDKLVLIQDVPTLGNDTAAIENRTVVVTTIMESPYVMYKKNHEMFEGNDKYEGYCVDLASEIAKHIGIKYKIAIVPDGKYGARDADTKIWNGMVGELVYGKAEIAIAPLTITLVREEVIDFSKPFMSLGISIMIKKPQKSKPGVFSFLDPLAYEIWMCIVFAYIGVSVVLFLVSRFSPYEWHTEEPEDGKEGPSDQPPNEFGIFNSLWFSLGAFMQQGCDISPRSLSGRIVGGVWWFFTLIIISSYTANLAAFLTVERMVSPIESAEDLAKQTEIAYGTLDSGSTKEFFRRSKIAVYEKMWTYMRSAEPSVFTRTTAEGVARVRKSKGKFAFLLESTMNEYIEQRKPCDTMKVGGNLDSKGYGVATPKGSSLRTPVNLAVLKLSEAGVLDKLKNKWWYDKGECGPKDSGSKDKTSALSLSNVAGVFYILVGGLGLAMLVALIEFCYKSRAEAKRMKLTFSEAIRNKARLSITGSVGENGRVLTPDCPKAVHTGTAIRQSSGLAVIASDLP
Sequence of Glutamate receptor 2 (Rattus norvegicus, UniProt P19491) (P19491 whole entry): as the sequence (P42262 whole entry) above, with M191T, T291A, R764G, A852P counted along it

Compound | EC50 [1] [µM] | Ki [2] [µM] | EC50 [3] [µM] | Ki [4] [µM] | EC50 [5] [µM] | Ki [6] [µM] | IC50 [7] [µM] | Ki [8] [µM] | IC50 [9] [µM] | Ki [10] [µM] | EC50 [11] [µM] | Ki [12] [µM] | EC50 [13] [µM] | Ki [14] [µM] | Ki [15] [µM] | IC50 [16] [µM] | EC50 [17] [µM] | Ki [18] [µM]
NC(Cc1onc(O)c1Cl)C(=O)O (configuration not stated) | 1300 | 11.9 | 1.7 | 6.8 | 2700 | 27.5 | 0.22 | 0.13 | > 100 | 860 | 27 | 18 | 39 | > 100 | 0.37 |  |  | 
NC(Cc1onc(O)c1Br)C(=O)O (configuration not stated) |  | 11.7 |  | 4.8 |  | 12 |  | 0.17 |  |  | 16 | 34 |  | > 100 | 0.25 | > 100 | 14 | 329
Cc1onc(O)c1CC(N)C(=O)O [(R,S)-AMPA] |  |  |  |  |  |  |  |  |  |  | 13 |  |  |  |  |  |  | 
